Source: PubChem BioAssay AID1963842 (Molecular Pharmacology Branch, DTP, NCI, 2024)

Test system: 677734-321-R-J1-PDC complex spheroid viability
Experiment: Anticancer human tumor 677734-321-R-J1-PDC patient-derived soft tissue sarcoma cell line growth inhibition [POLQ]
Conditions: for IC50: curve of first compound; for viability, T/C: stronger effect = lower value; active = viability on the fitted dose curve at most 10% of control; inactive = the rest
How it was run: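 Complex spheroid viability model combining PDC tumour cells with endothelial (HUVEC) and MSC stromal cells. Novobiocin, ART-558 or RP6685 were tested singly and in combination with standard and investigational anticancer drugs. Each was titrated in half-log steps from near clinical Cmax, or from 10 microM where Cmax was unknown.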

[1] = second compound 0.0316 µM, first compound 0.0316 µM
[2] = second compound 0.0316 µM, first compound 0.1 µM
[3] = second compound 0.0316 µM, first compound 0.316 µM
[4] = second compound 0.0316 µM, first compound 1 µM
[5] = second compound 0.1 µM, first compound 0.0316 µM
[6] = second compound 0.1 µM, first compound 0.1 µM
[7] = second compound 0.1 µM, first compound 0.316 µM
[8] = second compound 0.1 µM, first compound 1 µM
[9] = second compound 0.316 µM, first compound 0.0316 µM
[10] = second compound 0.316 µM, first compound 0.1 µM
[11] = second compound 0.316 µM, first compound 0.316 µM
[12] = second compound 0.316 µM, first compound 1 µM
[13] = second compound 1 µM, first compound 0.0316 µM
[14] = second compound 1 µM, first compound 0.1 µM
[15] = second compound 1 µM, first compound 0.316 µM
[16] = second compound 1 µM, first compound 1 µM
[17] = second compound 3.16 µM, first compound 0.0316 µM
[18] = second compound 3.16 µM, first compound 0.1 µM
[19] = second compound 3.16 µM, first compound 0.316 µM
[20] = second compound 3.16 µM, first compound 1 µM
[21] = second compound 10 µM, first compound 0.0316 µM
[22] = second compound 10 µM, first compound 0.1 µM
[23] = second compound 10 µM, first compound 0.316 µM
[24] = second compound 10 µM, first compound 1 µM
[25] = second compound 0.0316 µM, first compound 3.16 µM
[26] = second compound 0.0316 µM, first compound 10 µM
[27] = second compound 0.1 µM, first compound 3.16 µM
[28] = second compound 0.1 µM, first compound 10 µM
[29] = second compound 0.316 µM, first compound 3.16 µM
[30] = second compound 0.316 µM, first compound 10 µM
[31] = second compound 1 µM, first compound 3.16 µM
[32] = second compound 1 µM, first compound 10 µM
[33] = second compound 3.16 µM, first compound 3.16 µM
[34] = second compound 3.16 µM, first compound 10 µM
[35] = second compound 10 µM, first compound 3.16 µM
[36] = second compound 10 µM, first compound 10 µM
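Also: spheroids exposed to compounds for one week.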
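For viability, T/C in this document: 100% = vehicle DMSO treated spheroids.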

C=CCn1c(=O)c2cnc(Nc3ccc(N4CCN(C)CC4)cc3)nc2n1-c1cccc(C(C)(C)O)n1 + Cc1cccc(N(C)C(=O)C2C(O)CCN2c2nc(C)cc(C(F)(F)F)c2C#N)c1
inactive: viability, T/C (second compound 0.0316 µM, first compound 0.00316 µM) 102% | viability, T/C (second compound 0.0316 µM, first compound 0.01 µM) 102% | viability, T/C [1] 102% | viability, T/C [2] 90.6% | viability, T/C [3] 81% | viability, T/C [4] 29.7% | viability, T/C (second compound 0.1 µM, first compound 0.00316 µM) 88.6% | viability, T/C (second compound 0.1 µM, first compound 0.01 µM) 92.4% | viability, T/C [5] 106% | viability, T/C [6] 78.4% | viability, T/C [7] 67.4% | viability, T/C [8] 21.7% | viability, T/C (second compound 0.316 µM, first compound 0.00316 µM) 96.7% | viability, T/C (second compound 0.316 µM, first compound 0.01 µM) 95.3% | viability, T/C [9] 90.9% | viability, T/C [10] 85.6% | viability, T/C [11] 79% | viability, T/C [12] 34.4% | viability, T/C (second compound 1 µM, first compound 0.00316 µM) 117% | viability, T/C (second compound 1 µM, first compound 0.01 µM) 93.7% | viability, T/C [13] 98.9% | viability, T/C [14] 85% | viability, T/C [15] 51.4% | viability, T/C [16] 30.2% | viability, T/C (second compound 3.16 µM, first compound 0.00316 µM) 107% | viability, T/C (second compound 3.16 µM, first compound 0.01 µM) 87.7% | viability, T/C [17] 76.3% | viability, T/C [18] 87.8% | viability, T/C [19] 66.8% | viability, T/C [20] 31.9% | viability, T/C (second compound 10 µM, first compound 0.00316 µM) 89.6% | viability, T/C (second compound 10 µM, first compound 0.01 µM) 82.6% | viability, T/C [21] 95.3% | viability, T/C [22] 82.3% | viability, T/C [23] 70% | viability, T/C [24] 18.6%
661 nM: IC50 (second compound 0.316 µM)
478 nM: IC50 (second compound 0.1 µM)
537 nM: IC50 (second compound 3.16 µM)
493 nM: IC50 (second compound 10 µM)
627 nM: IC50 (second compound 0.0316 µM)
401 nM: IC50 (second compound 1 µM)

CC1COCCN1c1cc(-c2ccnn2C)c2ccnc(-c3ccn[nH]3)c2n1 (stereo unspecified) + Cc1cccc(N(C)C(=O)C2C(O)CCN2c2nc(C)cc(C(F)(F)F)c2C#N)c1
175 nM: IC50 (second compound 0.1 µM)
inactive: viability, T/C [1] 100% | viability, T/C [2] 67.6% | viability, T/C [3] 24.8% | viability, T/C [4] 21.6% | viability, T/C [25] 18.2% | viability, T/C [26] 14.3% | viability, T/C [5] 88.9% | viability, T/C [6] 70.9% | viability, T/C [7] 27.8% | viability, T/C [8] 17.1% | viability, T/C [27] 17.4% | viability, T/C [28] 16.6% | viability, T/C [9] 98.1% | viability, T/C [10] 64.9% | viability, T/C [11] 24.2% | viability, T/C [12] 19.6% | viability, T/C [29] 20.3% | viability, T/C [30] 16.3% | viability, T/C [13] 99.9% | viability, T/C [14] 65.5% | viability, T/C [15] 25.4% | viability, T/C [16] 18.7% | viability, T/C [31] 18.9% | viability, T/C [32] 15.8% | viability, T/C [17] 90.7% | viability, T/C [18] 56% | viability, T/C [19] 25.2% | viability, T/C [20] 19.1% | viability, T/C [33] 16.5% | viability, T/C [34] 18.6% | viability, T/C [21] 89.7% | viability, T/C [22] 52.5% | viability, T/C [23] 21.7% | viability, T/C [24] 17.2% | viability, T/C [35] 18.4% | viability, T/C [36] 16%
161 nM: IC50 (second compound 0.0316 µM)
156 nM: IC50 (second compound 1 µM)
153 nM: IC50 (second compound 0.316 µM)
110 nM: IC50 (second compound 10 µM)
125 nM: IC50 (second compound 3.16 µM)

CC1COCCN1c1cc(C2(S(C)(=N)=O)CC2)nc(-c2ccnc3[nH]ccc23)n1 (stereo unspecified) + Cc1cccc(N(C)C(=O)C2C(O)CCN2c2nc(C)cc(C(F)(F)F)c2C#N)c1
4030 nM: IC50 (second compound 0.0316 µM)
3790 nM: IC50 (second compound 1 µM)
3910 nM: IC50 (second compound 0.316 µM)
3100 nM: IC50 (second compound 3.16 µM)
3860 nM: IC50 (second compound 0.1 µM)
inactive: viability, T/C [1] 106% | viability, T/C [2] 105% | viability, T/C [3] 104% | viability, T/C [4] 91% | viability, T/C [25] 57% | viability, T/C [26] 24.2% | viability, T/C [5] 106% | viability, T/C [6] 110% | viability, T/C [7] 96.5% | viability, T/C [8] 92.9% | viability, T/C [27] 53.6% | viability, T/C [28] 28.6% | viability, T/C [9] 117% | viability, T/C [10] 108% | viability, T/C [11] 100% | viability, T/C [12] 90.4% | viability, T/C [29] 54.3% | viability, T/C [30] 22% | viability, T/C [13] 109% | viability, T/C [14] 102% | viability, T/C [15] 98.5% | viability, T/C [16] 98.3% | viability, T/C [31] 54.5% | viability, T/C [32] 25.4% | viability, T/C [17] 104% | viability, T/C [18] 103% | viability, T/C [19] 99.7% | viability, T/C [20] 90.6% | viability, T/C [33] 49.2% | viability, T/C [34] 37.8% | viability, T/C [21] 102% | viability, T/C [22] 96.5% | viability, T/C [23] 93.1% | viability, T/C [24] 87% | viability, T/C [35] 48.3% | viability, T/C [36] 26%
3030 nM: IC50 (second compound 10 µM)
